Test results taken from ChEMBL document CHEMBL4049403, “Oligo-aspartic acid conjugates with benzo[c][2,6]naphthyridine-8-carboxylic acid scaffold as picomolar inhibitors of CK2” (Bioorg Med Chem, 2017).
Where a SMILES comes first, the peptide text is derived from it. The star is where a group is joined. X1 = O=C(O)c1ccc2c(c1)nc(OCCCCCCCCC(=O)*)c1ccncc12

Experiments:
[1] = molecular target: Insulin receptor (Homo sapiens) (UniProt P06213); assay: Inhibition of human IR assessed as residual activity at 1 uM in presence of [33P]ATP by filter binding assay relative to control
[2] = molecular target: Serine/threonine-protein kinase PINK1, mitochondrial (Homo sapiens) (UniProt Q9BXM7); assay: Inhibition of human PINK assessed as residual activity at 1 uM in presence of [33P]ATP by filter binding assay relative to control
[3] = molecular target: Dual specificity mitogen-activated protein kinase kinase 6 (Homo sapiens) (UniProt P52564); assay: Inhibition of human MKK6 assessed as residual activity at 1 uM in presence of [33P]ATP by filter binding assay relative to control
Chain of Dual specificity mitogen-activated protein kinase kinase 6 (Homo sapiens) (P52564 whole entry): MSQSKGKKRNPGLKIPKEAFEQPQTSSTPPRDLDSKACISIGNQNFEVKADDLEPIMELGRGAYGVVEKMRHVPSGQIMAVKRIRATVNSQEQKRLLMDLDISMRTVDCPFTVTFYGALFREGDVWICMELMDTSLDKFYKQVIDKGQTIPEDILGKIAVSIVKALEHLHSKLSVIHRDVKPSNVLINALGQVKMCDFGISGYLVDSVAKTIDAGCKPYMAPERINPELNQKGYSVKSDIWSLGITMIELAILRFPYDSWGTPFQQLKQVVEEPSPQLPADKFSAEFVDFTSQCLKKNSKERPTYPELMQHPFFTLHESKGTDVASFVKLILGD

[4] = molecular target: Serine/threonine-protein kinase SIK3 (Homo sapiens) (UniProt Q9Y2K2); assay: Inhibition of human SIK3 assessed as residual activity at 1 uM in presence of [33P]ATP by filter binding assay relative to control
[5] = molecular target: Serine/threonine-protein kinase 33 (Homo sapiens) (UniProt Q9BYT3); assay: Inhibition of human STK33 assessed as residual activity at 1 uM in presence of [33P]ATP by filter binding assay relative to control
[6] = molecular target: Serine/threonine-protein kinase Nek2 (Homo sapiens) (UniProt P51955); assay: Inhibition of human NEK2a assessed as residual activity at 1 uM in presence of [33P]ATP by filter binding assay relative to control
Chain of Serine/threonine-protein kinase Nek2 (Homo sapiens) (P51955 whole entry): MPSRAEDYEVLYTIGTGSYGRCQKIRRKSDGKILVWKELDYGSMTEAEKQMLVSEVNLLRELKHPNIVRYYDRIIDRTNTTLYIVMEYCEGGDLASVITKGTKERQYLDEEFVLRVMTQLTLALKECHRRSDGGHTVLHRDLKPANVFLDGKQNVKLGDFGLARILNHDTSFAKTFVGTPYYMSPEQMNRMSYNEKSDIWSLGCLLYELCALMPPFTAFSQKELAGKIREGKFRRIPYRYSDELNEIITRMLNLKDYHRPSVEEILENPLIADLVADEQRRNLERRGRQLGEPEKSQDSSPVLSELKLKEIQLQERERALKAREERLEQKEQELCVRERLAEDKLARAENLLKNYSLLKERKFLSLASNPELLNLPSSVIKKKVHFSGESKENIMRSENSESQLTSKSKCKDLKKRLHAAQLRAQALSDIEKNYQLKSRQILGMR

[7] = molecular target: Mitogen-activated protein kinase kinase kinase kinase 3 (Homo sapiens) (UniProt Q8IVH8); assay: Inhibition of human MAP4K3 assessed as residual activity at 1 uM in presence of [33P]ATP by filter binding assay relative to control
[8] = molecular target: Mitogen-activated protein kinase kinase kinase kinase 5 (Homo sapiens) (UniProt Q9Y4K4); assay: Inhibition of human MAP4K5 assessed as residual activity at 1 uM in presence of [33P]ATP by filter binding assay relative to control
[9] = molecular target: Tyrosine-protein kinase BTK (Homo sapiens) (UniProt Q06187); assay: Inhibition of human BTK assessed as residual activity at 1 uM in presence of 33P-ATP by filter-binding assay relative to control
[10] = molecular target: Serine/threonine-protein kinase PAK 2 (Homo sapiens) (UniProt Q13177); assay: Inhibition of human PAK2 assessed as residual activity at 1 uM in presence of [33P]ATP by filter binding assay relative to control
[11] = molecular target: Tyrosine-protein kinase JAK2 (Homo sapiens) (UniProt O60674); assay: Inhibition of human JAK2 assessed as residual activity at 1 uM in presence of [33P]ATP by filter binding assay relative to control
[12] = molecular target: RAC-beta serine/threonine-protein kinase (Homo sapiens) (UniProt P31751); assay: Inhibition of human PKBb assessed as residual activity at 1 uM in presence of [33P]ATP by filter binding assay relative to control
[13] = molecular target: Mitogen-activated protein kinase kinase kinase 9 (Homo sapiens) (UniProt P80192); assay: Inhibition of human MLK1 assessed as residual activity at 1 uM in presence of 33P-ATP by filter-binding assay relative to control
Chain of Mitogen-activated protein kinase kinase kinase 9 (Homo sapiens) (P80192 whole entry, looked up): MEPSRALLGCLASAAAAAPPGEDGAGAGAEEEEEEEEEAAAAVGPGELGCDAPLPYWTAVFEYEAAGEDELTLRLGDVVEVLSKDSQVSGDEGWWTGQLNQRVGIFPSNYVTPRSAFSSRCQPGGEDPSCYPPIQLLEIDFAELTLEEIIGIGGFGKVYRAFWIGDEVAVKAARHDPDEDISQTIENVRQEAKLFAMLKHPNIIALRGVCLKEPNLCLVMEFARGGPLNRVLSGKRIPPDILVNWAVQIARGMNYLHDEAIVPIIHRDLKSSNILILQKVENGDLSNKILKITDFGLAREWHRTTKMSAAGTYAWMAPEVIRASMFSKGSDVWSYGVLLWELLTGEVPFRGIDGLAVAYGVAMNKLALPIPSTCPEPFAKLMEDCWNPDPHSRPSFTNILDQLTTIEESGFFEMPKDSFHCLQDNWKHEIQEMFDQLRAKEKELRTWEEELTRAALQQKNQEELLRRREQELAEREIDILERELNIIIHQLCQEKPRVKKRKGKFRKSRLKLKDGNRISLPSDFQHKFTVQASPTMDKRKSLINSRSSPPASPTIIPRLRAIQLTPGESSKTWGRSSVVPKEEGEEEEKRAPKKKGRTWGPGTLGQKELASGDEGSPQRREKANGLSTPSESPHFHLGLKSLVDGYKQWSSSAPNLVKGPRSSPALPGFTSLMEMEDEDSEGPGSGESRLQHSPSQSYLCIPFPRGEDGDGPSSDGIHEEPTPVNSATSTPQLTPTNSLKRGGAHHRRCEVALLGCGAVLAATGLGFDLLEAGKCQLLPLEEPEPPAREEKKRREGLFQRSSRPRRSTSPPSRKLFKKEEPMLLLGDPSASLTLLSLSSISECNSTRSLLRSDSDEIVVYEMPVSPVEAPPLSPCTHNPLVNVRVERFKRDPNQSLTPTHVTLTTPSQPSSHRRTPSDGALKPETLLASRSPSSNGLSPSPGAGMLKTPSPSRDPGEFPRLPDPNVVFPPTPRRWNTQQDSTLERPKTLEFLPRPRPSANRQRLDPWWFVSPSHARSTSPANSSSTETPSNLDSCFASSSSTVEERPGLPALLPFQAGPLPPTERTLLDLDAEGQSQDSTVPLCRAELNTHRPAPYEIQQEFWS

[14] = molecular target: Serine/threonine-protein kinase WNK1 (Homo sapiens) (UniProt Q9H4A3); assay: Inhibition of human WNK1 assessed as residual activity at 1 uM in presence of [33P]ATP by filter binding assay relative to control
[15] = molecular target: Ephrin type-B receptor 4 (Homo sapiens) (UniProt P54760); assay: Inhibition of human EPHB4 assessed as residual activity at 1 uM in presence of [33P]ATP by filter binding assay relative to control
Chain of Ephrin type-B receptor 4 (Homo sapiens) (P54760 whole entry): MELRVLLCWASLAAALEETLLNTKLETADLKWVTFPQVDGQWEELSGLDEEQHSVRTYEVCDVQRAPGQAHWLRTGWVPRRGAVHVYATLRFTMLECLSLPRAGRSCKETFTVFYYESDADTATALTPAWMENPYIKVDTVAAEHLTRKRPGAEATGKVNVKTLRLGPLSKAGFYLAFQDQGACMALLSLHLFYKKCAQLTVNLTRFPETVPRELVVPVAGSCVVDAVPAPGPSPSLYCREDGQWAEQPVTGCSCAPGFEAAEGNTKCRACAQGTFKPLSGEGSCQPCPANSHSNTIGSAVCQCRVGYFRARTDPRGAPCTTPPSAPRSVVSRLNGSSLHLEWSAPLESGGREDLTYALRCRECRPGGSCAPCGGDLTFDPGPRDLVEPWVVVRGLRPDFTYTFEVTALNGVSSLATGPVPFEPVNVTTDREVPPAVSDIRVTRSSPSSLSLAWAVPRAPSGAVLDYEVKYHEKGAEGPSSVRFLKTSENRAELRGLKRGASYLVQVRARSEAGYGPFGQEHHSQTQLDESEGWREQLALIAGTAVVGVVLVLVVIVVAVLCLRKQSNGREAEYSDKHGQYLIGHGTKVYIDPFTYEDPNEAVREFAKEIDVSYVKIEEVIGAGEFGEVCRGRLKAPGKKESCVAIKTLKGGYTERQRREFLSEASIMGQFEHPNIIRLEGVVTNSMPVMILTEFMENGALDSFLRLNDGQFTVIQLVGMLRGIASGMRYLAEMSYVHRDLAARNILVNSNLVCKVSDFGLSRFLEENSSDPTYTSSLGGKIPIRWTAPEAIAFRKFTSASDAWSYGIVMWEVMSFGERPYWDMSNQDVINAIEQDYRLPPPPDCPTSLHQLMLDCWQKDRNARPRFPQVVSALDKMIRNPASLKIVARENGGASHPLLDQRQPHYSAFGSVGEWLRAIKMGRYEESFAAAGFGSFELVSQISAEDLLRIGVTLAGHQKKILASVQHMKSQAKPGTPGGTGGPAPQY

[16] = molecular target: Interleukin-1 receptor-associated kinase 4 (Homo sapiens) (UniProt Q9NWZ3); assay: Inhibition of human IRAK4 assessed as residual activity at 1 uM in presence of [33P]ATP by filter binding assay relative to control
[17] = molecular target: Angiopoietin-1 receptor (Homo sapiens) (UniProt Q02763); assay: Inhibition of human TIE2 assessed as residual activity at 1 uM in presence of 33P-ATP by filter-binding assay relative to control
[18] = molecular target: Homeodomain-interacting protein kinase 2 (Homo sapiens) (UniProt Q9H2X6); assay: Inhibition of human HIPK2 assessed as residual activity at 1 uM in presence of 33P-ATP by filter-binding assay relative to control
[19] = molecular target: Serine/threonine-protein kinase PAK 4 (Homo sapiens) (UniProt O96013); assay: Inhibition of human PAK4 assessed as residual activity at 1 uM in presence of [33P]ATP by filter binding assay relative to control
[20] = molecular target: Calcium/calmodulin-dependent protein kinase type 1 (Homo sapiens) (UniProt Q14012); assay: Inhibition of human CAMK1 assessed as residual activity at 1 uM in presence of [33P]ATP by filter binding assay relative to control
[21] = molecular target: Serine/threonine-protein kinase pim-1 (Homo sapiens) (UniProt P11309); assay: Inhibition of human PIM1 assessed as residual activity at 1 uM in presence of 33P-ATP by filter-binding assay relative to control
Chain of Serine/threonine-protein kinase pim-1 (Homo sapiens) (P11309 whole entry, looked up): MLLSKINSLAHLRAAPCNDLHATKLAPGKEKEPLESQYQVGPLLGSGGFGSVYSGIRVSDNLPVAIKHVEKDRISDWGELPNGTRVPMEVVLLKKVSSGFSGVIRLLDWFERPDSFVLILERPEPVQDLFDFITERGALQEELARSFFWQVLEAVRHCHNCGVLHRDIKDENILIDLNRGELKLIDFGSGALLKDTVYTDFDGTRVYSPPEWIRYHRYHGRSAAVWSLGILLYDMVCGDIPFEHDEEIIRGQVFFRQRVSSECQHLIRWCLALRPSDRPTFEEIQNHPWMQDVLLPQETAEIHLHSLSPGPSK

[22] = molecular target: Serine/threonine-protein kinase pim-3 (Homo sapiens) (UniProt Q86V86); assay: Inhibition of human PIM3 assessed as residual activity at 1 uM in presence of [33P]ATP by filter binding assay relative to control
Homo sapiens = species: Homo sapiens; assay: Inhibition of human VEGFR assessed as residual activity at 1 uM in presence of 33P-ATP by filter-binding assay relative to control
[23] = molecular target: Serine/threonine-protein kinase ULK1 (Homo sapiens) (UniProt O75385); assay: Inhibition of human ULK1 assessed as residual activity at 1 uM in presence of [33P]ATP by filter binding assay relative to control
Chain of Serine/threonine-protein kinase ULK1 (Homo sapiens) (O75385 whole entry): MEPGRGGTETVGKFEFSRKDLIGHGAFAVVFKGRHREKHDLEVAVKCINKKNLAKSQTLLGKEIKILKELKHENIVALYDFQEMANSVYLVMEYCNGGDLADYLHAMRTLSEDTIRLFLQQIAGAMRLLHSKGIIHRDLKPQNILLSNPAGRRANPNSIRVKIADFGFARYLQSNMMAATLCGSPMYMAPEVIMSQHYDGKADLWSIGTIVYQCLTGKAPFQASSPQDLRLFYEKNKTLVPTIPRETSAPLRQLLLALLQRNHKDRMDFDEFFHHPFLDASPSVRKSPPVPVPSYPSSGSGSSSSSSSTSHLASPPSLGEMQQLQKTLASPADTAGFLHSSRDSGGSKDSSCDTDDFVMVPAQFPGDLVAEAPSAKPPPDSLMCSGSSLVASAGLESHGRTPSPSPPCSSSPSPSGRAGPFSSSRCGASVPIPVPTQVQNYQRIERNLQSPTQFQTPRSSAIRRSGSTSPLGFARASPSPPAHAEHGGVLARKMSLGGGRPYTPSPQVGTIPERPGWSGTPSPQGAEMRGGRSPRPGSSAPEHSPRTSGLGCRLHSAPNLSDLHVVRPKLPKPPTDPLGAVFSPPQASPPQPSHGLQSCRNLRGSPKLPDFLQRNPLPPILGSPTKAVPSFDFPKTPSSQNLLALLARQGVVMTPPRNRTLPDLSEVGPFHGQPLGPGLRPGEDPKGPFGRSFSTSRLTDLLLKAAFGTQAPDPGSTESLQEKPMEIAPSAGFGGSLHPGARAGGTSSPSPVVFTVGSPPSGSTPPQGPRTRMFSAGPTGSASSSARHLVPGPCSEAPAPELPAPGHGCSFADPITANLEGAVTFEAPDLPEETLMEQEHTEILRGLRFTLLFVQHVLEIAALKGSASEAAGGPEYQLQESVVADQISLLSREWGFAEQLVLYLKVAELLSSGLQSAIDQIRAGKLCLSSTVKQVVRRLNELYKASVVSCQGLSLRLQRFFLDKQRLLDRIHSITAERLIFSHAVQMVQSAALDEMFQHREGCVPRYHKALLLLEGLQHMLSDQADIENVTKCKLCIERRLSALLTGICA

[24] = molecular target: Dual specificity mitogen-activated protein kinase kinase 2 (Homo sapiens) (UniProt P36507); assay: Inhibition of human MKK2 assessed as residual activity at 1 uM in presence of [33P]ATP by filter binding assay relative to control
Chain of Dual specificity mitogen-activated protein kinase kinase 2 (Homo sapiens) (P36507 whole entry): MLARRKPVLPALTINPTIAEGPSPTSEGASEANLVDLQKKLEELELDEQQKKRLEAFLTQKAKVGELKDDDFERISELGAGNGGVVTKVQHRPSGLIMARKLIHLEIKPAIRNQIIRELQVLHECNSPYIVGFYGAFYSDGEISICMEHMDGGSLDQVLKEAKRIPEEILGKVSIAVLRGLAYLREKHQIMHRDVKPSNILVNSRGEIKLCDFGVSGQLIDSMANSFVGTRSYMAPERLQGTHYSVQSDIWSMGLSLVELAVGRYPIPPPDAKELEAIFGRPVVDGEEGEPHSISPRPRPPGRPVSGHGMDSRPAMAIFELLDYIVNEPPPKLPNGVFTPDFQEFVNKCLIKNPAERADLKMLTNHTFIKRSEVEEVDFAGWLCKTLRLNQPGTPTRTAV

[25] = molecular target: Serine/threonine-protein kinase Chk1 (Homo sapiens) (UniProt O14757); assay: Inhibition of human CHK1 assessed as residual activity at 1 uM in presence of [33P]ATP by filter binding assay relative to control
[26] = molecular target: Dual specificity mitogen-activated protein kinase kinase 1 (Homo sapiens) (UniProt Q02750); assay: Inhibition of human MKK1 assessed as residual activity at 1 uM in presence of [33P]ATP by filter binding assay relative to control
[27] = molecular target: Glycogen synthase kinase-3 beta (Homo sapiens) (UniProt P49841); assay: Inhibition of human GSK3beta assessed as residual activity at 1 uM in presence of 33P-ATP by filter-binding assay relative to control
[28] = molecular target: AMP-activated protein kinase, AMPK (Homo sapiens) (UniProt P54646+O43741+P54619+Q9UGJ0+Q9Y478+Q13131+Q9UGI9); assay: Inhibition of human AMPK assessed as residual activity at 1 uM in presence of 33P-ATP by filter-binding assay relative to control

- Activity [1]: 85%
- Activity [2]: 93%
- Activity [3]: 74%
- Activity [4]: 90%
- Activity [5]: 83%
- Activity [6]: 76%
- Activity [7]: 95%
- Activity [8]: 87%
- Activity [9]: 62%
- Activity [10]: 97%
- Activity [11]: 72%
- Activity [12]: 100%
- Activity [13]: 42%
- Activity [14]: 96%
- Activity [15]: 86%
- Activity [16]: 103%
- Activity [17]: 41%
- Activity [18]: 5%
- Activity [19]: 107%
- Activity [20]: 89%
- Activity [21]: 64%
- Activity [22]: 84%
- Activity (Homo sapiens): 63%
- Activity [23]: 90%
- Activity [24]: 88%
- Activity [25]: 91%
- Activity [26]: 86%
- Activity [27]: 26%
- Activity [28]: 11%
Compound: NCCCC[C@H](NC(=O)[C@H](CC(=O)O)NC(=O)[C@H](CC(=O)O)NC(=O)[C@H](CC(=O)O)NC(=O)[C@H](CC(=O)O)NC(=O)[C@H](CC(=O)O)NC(=O)[C@H](CC(=O)O)NC(=O)CCCCCCCCOc1nc2cc(C(=O)O)ccc2c2cnccc12)C(=O)O (X1-DDDDDDK-OH)
